One data set deals with T1, 5-HT1A (Homo sapiens, UniProt P08908).
T1 sequence (P08908 1-422): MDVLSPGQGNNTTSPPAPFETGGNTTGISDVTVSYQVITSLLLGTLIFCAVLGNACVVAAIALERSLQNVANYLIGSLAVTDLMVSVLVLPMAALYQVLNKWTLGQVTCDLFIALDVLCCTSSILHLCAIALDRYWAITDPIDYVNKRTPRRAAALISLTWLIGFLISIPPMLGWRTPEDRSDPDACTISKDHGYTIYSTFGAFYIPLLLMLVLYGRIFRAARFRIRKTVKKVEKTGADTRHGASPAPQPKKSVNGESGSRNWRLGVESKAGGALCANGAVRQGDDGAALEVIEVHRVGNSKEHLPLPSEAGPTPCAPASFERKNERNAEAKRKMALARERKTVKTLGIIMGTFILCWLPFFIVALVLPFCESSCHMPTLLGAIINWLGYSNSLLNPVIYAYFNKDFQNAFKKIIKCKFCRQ
Put plainly: 5-HT1A receptor binding, [3H]DPAT. Conditions: radioligand [3H]DPAT.

Counter-ions that a name gives are not always drawn.

In the case of `Fc1ccc2[nH]cc(CC3CCN(CCOc4cccc5[nH]ccc45)CC3)c2c1` (as salt: hydrochloride) (hydrate or solvate) [Example 1, 5-Fluoro-3-{1-[2-(1H-indol-4-yloxy)ethyl]-piperidin-4-ylmethyl}-1H-indole], the melting point was 215 °C (dec.). Same read-out and setting: with `CC(CN1CCC(Cc2c[nH]c3ccc(F)cc23)CC1)Oc1cccc2[nH]ccc12` (stereo not shown) (as salt: hydrochloride) [Example 2, 5-Fluoro-3-[[1-[2-(1H-indol-4-yloxy)propyl]-4-piperidinyl]methyl]-1H-indole] the figure was 130 to 132 °C. Molecule `Fc1ccc2[nH]cc(CC3CCN(CCOc4cccc5[nH]ccc45)CC3)c2c1` [Example 1, 5-Fluoro-3-{1-[2-(1H-indol-4-yloxy)ethyl]-piperidin-4-ylmethyl}-1H-indole] gave a Ki at 5-HT1A of 47 nM. `CC(CN1CCC(Cc2c[nH]c3ccc(F)cc23)CC1)Oc1cccc2[nH]ccc12` (stereo not shown) [Example 2, 5-Fluoro-3-[[1-[2-(1H-indol-4-yloxy)propyl]-4-piperidinyl]methyl]-1H-indole]: the “5-HT1A [3H]DPAT, percent at 100 nM” value on 5-HT1A (@ 100 nM) stood at 14% @.

Values taken from patent publication US6489342B2, “Aryloxy piperidinyl indoles for treating depression” (Wyeth, priority 2000, dated 2002).
